In this experiment the test system is Epiphyas postvittana. As to the kind of experiment: Large Vineyard Trial 2 (disruption of catch to four component lures). It is filed as in vivo. The settings on record: added at 4:1 ratio E11-14:Ac to Z11-14:Ac (Blends 4, 5). As for the experimental part:
All compounds used as authentic standards in the chromatographic analysis or in the field trapping experiments were >97% pure by GC analysis and stored at −80° C. until used. Samples of E11-14:Ac, E9E11-14:Ac, E11-14:OH and E11-16:Ac were purchased from Plant Research International, Wageningen, The Netherlands. All blends of synthetic compounds were applied to the large “well” of red rubber septa (West Pharmaceutical Services, Kearney, N.E., USA) in 200 μl of n-hexane GR (Merck Ltd, New Zealand). The solvent was allowed to evaporate in a fume hood and the septa were stored in heat-sealed foil bags at −20° C. until ready for use. For traps used in assessing disruption, lures contained the four component lure at 1 mg loading with the blends shown in Table 1. […]
Traps were maintained weekly as a short central row transect in each case, with 3 traps containing the four component lure. […] For both trials, the number of moths in the traps was recorded each week. […]
For both Large Vineyard Trials 1 and 2, counts for each date were analysed. In addition, the total pre-treatment and post-treatment counts were analysed. […] Random effects assessed were blocks (replicates), plots within blocks, and spatial position (rows and column as in the Trial plans). In addition to the treatments, for the post-treatment counts, a co-variate for the trap counts in the last pre-treatment week was assessed as a fixed effect. […]

Turning to `CC/C=C\CCCCCCCCCCOC(C)=O` [Z11-14:Ac, (Z)-11-tetradecenyl acetate], the “effect of the inhibitor on disruption” value was “antagonistic to disruption”.

The record behind these values is patent publication US20140004075A1, “PHEROMONE COMPOSITION” (The New Zealand Institute for Plant and Food Research …, priority 2010, published 2014).
